For orientation: AC50 means the concentration giving half of the maximal activity seen. A higher AC50 goes with weaker potency.

In assay [1] the target is T1, Estrogen receptor (Homo sapiens, UniProt P03372).
T1 sequence (P03372 whole entry): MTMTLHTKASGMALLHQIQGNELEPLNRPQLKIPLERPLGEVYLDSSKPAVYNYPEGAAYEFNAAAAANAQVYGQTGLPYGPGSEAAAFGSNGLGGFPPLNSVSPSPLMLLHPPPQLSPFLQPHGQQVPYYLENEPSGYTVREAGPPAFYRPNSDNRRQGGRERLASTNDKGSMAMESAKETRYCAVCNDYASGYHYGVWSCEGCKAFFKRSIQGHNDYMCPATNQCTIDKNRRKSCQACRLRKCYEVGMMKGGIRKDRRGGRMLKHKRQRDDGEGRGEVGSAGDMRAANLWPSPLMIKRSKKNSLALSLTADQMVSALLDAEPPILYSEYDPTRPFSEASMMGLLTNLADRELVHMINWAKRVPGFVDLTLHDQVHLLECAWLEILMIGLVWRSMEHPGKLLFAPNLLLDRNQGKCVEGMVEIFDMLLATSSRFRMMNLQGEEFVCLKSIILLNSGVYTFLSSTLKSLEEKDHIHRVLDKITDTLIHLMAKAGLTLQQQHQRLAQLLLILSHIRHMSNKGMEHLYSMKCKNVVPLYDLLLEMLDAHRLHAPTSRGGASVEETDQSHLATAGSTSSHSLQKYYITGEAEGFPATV
It is filed as functional.

Assay [2] addresses T1, Estrogen receptor. Format: functional. The source holds these as a separate data set.
For assay [3], the target named is T2, Gamma-aminobutyric acid receptor subunit alpha-1/alpha-2/beta-2/gamma-2 (Homo sapiens, UniProt P14867+P18507+P47869+P47870). Format: functional, cell-based.
The target of assay [4] is T3, Glucocorticoid receptor (Homo sapiens, UniProt P04150).
T3 sequence (P04150 whole entry): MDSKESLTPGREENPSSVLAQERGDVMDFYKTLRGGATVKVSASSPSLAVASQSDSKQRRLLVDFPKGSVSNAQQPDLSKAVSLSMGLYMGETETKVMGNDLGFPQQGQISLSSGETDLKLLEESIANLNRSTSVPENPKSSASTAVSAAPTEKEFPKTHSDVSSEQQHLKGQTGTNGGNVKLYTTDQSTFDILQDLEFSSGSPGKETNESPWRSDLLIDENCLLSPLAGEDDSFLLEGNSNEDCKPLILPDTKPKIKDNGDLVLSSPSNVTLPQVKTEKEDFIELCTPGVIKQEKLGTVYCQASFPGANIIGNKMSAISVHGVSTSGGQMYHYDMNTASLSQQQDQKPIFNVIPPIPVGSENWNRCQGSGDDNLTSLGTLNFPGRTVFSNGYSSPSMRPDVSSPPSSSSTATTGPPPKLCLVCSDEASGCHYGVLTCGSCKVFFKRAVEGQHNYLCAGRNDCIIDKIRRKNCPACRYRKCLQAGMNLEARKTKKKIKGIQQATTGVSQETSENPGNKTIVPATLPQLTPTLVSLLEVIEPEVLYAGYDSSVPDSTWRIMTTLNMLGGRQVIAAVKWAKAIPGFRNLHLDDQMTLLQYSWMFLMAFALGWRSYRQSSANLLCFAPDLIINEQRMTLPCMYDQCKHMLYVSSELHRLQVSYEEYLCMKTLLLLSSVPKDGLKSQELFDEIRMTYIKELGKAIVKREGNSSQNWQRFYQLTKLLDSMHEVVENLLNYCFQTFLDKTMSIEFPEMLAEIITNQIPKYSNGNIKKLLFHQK
It is filed as functional.

Assay [5] has as its target T3, Glucocorticoid receptor. Format: functional. This is another data set of the same source.
The target in assay [6] is T4, Peroxisome proliferator-activated receptor gamma (Homo sapiens, UniProt P37231).
T4 sequence (P37231 whole entry): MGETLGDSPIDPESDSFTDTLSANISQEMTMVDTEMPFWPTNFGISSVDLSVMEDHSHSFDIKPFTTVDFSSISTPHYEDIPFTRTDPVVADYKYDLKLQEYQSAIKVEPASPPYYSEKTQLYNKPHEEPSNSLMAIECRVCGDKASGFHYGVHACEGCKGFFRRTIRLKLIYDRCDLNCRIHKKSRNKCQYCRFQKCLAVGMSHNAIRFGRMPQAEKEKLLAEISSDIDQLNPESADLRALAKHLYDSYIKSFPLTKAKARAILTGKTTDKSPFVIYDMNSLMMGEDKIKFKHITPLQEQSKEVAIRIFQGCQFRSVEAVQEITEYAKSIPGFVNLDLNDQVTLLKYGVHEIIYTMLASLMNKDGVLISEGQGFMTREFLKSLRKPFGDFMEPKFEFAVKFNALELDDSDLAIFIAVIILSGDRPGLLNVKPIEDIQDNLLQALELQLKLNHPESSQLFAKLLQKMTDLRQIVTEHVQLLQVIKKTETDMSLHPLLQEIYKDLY
It is filed as functional.

The target in assay [7] is T4, Peroxisome proliferator-activated receptor gamma. It is filed as functional. This is another data set of the same source.
The target of assay [8] is Sodium channel protein type 5 subunit alpha (Homo sapiens, UniProt Q14524). It is filed as functional, cell-based.
Chain of Sodium channel protein type 5 subunit alpha (Q14524 whole entry): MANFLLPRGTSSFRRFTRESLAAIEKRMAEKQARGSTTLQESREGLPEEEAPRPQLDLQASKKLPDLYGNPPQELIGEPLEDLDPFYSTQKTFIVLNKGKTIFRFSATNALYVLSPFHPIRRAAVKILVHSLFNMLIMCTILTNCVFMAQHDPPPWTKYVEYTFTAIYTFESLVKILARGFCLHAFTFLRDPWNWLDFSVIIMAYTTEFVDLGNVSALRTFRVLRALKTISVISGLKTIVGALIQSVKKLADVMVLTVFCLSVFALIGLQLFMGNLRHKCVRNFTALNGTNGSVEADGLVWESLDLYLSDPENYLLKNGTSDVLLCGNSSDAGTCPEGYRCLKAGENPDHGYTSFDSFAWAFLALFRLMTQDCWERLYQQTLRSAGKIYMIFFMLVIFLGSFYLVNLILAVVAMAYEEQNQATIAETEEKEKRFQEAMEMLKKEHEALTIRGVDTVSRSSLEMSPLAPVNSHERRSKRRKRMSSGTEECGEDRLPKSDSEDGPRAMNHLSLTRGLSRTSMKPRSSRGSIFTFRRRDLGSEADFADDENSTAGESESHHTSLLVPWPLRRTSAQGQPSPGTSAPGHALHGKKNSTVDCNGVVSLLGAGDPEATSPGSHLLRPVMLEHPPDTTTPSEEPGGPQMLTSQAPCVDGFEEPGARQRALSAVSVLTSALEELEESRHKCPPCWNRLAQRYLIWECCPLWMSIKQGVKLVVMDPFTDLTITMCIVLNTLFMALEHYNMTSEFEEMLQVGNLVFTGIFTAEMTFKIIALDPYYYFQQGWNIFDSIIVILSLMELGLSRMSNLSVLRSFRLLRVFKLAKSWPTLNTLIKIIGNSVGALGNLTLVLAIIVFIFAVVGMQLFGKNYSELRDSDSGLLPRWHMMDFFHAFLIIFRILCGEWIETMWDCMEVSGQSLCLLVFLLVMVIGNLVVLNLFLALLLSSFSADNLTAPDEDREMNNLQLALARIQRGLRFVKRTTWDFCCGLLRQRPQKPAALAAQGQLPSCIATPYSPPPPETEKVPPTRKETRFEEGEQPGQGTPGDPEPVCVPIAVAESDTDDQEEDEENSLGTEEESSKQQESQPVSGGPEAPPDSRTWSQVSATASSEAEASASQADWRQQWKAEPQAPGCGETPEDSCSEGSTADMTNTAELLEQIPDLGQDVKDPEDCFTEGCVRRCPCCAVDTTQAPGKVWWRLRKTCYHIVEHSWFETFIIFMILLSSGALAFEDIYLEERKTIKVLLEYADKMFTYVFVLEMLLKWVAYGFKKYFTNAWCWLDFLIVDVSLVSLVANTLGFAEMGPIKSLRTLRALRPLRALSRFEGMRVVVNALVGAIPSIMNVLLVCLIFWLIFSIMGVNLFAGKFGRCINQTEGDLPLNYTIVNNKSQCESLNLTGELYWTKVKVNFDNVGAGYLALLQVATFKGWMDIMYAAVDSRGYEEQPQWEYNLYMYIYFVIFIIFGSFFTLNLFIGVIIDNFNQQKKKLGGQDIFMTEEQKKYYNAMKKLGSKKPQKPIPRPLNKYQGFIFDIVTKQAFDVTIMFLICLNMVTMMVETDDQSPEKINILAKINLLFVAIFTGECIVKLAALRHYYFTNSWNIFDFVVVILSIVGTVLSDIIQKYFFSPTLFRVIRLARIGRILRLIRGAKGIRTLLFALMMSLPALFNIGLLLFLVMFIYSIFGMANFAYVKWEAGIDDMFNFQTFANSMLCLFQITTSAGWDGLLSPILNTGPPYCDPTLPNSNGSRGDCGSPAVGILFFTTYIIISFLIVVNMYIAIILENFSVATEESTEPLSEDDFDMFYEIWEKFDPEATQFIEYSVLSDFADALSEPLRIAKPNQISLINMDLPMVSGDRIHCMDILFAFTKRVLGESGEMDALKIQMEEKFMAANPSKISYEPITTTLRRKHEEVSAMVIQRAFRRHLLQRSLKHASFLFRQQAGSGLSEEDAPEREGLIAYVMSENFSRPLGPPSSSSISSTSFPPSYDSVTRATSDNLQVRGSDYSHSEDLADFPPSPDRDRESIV
Assay [9] has as its target T2, Gamma-aminobutyric acid receptor subunit alpha-1/alpha-2/beta-2/gamma-2. It is filed as functional, cell-based. The source holds these as a separate data set.
The target of assay [10] is Epidermal growth factor receptor (Homo sapiens, UniProt P00533). Format: functional.
Chain of Epidermal growth factor receptor (P00533 whole entry): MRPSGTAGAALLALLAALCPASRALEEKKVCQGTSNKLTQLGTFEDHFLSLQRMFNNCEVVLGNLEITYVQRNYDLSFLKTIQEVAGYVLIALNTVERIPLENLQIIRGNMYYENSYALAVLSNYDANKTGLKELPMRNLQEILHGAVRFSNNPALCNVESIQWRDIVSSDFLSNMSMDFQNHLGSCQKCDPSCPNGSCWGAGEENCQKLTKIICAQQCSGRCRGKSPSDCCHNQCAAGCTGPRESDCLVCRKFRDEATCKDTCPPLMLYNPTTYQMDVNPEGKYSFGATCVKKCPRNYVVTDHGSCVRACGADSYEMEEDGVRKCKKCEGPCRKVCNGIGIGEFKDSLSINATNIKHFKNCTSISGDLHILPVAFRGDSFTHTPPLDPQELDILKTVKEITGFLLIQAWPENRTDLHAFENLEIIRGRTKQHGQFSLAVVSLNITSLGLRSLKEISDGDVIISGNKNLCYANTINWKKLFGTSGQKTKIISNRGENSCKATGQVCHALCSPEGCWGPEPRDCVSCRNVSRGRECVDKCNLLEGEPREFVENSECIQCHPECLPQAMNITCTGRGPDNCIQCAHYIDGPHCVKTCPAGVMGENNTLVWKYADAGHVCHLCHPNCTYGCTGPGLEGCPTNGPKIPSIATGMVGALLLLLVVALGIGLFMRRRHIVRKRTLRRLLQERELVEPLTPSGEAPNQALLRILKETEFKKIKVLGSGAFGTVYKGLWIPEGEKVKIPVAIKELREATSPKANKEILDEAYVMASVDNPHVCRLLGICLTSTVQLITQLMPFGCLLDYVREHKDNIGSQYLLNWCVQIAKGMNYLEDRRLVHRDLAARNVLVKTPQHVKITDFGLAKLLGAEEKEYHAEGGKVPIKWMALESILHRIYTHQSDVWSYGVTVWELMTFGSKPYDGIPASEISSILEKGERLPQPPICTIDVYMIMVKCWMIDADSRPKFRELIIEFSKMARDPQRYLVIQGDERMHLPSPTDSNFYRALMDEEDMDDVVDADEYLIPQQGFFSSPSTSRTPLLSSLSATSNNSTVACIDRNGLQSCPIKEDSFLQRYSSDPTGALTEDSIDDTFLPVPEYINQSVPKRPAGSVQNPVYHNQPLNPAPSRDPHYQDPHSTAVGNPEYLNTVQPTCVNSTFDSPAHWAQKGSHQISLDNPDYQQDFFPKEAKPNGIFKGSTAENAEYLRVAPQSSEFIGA
The target in assay [11] is Receptor tyrosine-protein kinase erbB-2 (Homo sapiens, UniProt P04626). Format: functional.
Chain of Receptor tyrosine-protein kinase erbB-2 (P04626 whole entry): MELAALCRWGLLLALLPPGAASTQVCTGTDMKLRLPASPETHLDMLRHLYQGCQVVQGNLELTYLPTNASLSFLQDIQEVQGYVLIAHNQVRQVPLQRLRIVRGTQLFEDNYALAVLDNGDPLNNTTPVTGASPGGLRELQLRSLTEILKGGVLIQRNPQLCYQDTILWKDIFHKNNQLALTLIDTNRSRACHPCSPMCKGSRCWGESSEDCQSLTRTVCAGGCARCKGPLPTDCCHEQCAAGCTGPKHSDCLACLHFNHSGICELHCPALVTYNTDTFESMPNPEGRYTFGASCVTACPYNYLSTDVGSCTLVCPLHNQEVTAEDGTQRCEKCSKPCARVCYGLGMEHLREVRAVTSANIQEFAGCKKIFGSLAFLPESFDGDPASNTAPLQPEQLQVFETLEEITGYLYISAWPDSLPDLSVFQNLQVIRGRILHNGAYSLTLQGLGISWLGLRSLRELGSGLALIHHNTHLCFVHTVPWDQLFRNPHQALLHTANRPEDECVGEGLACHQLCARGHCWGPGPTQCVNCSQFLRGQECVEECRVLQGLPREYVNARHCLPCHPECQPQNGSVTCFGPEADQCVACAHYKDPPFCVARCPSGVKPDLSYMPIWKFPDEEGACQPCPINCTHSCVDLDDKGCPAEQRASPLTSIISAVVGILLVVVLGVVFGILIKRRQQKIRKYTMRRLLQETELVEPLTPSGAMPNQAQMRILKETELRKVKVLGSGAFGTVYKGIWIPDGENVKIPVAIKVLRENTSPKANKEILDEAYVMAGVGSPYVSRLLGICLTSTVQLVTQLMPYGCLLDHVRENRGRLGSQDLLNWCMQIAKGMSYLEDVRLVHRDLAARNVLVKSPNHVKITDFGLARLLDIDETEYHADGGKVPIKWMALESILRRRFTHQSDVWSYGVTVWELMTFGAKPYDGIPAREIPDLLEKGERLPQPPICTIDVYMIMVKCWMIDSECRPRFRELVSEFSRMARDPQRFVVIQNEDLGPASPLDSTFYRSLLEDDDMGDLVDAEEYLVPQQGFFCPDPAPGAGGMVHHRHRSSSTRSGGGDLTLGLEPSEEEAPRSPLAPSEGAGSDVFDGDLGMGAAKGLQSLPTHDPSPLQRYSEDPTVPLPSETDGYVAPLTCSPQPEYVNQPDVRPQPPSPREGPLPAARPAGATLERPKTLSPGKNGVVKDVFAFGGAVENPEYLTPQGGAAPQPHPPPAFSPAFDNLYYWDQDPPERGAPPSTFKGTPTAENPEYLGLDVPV
Assay [12] deals with T1, Estrogen receptor.
Assay [13] has as its target T2, Gamma-aminobutyric acid receptor subunit alpha-1/alpha-2/beta-2/gamma-2. Format: protein-complex assay.
Another assay addresses Mu-type opioid receptor (Homo sapiens, UniProt P35372). In words: biochemical. Format: functional.
In assay [14] the target is Gamma-aminobutyric acid receptor subunit alpha-1 (Rattus norvegicus, UniProt P62813).
Further: assay procedure not described here.

Chain of Mu-type opioid receptor (P35372 whole entry): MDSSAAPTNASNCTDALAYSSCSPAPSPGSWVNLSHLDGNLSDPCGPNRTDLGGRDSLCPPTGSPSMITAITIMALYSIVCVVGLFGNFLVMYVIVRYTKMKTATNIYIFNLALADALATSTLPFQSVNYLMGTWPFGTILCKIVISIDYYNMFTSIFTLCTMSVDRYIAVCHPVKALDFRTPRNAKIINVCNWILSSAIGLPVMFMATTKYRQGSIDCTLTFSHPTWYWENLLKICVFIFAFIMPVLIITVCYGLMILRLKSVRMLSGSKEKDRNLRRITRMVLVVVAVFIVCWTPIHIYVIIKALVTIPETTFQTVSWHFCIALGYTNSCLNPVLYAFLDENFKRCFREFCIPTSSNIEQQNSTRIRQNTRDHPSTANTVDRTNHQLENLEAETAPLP

Turning to `CC(C)(CO)c1cc2cc(NC(=O)C3(c4ccc5c(c4)OC(F)(F)O5)CC3)c(F)cc2n1C[C@@H](O)CO` [TEZACAFTOR], the AC50 (at Estrogen receptor [1]; at Estrogen receptor [2]; in assay [3]; on Glucocorticoid receptor [4]; at Glucocorticoid receptor [5]; in assay [6]) was greater than 30 µM in each case. Also, the AC50 was greater than 30 µM in assay [7] and 42 µM in assay [8].

As to `CCOCC(O)COc1ccc(NC(=O)CC[S+](C)C)cc1` (configuration not stated), the AC50 (at Estrogen receptor [1]; on Estrogen receptor [2]; in assay [3]; in [9]; at Glucocorticoid receptor [4]; at Glucocorticoid receptor [5]) was greater than 30 µM each time. Further, the AC50 in assay [6] and in assay [7] was greater than 30 µM in each case.

In the case of `COc1cc2c(cc1OC)C1CC(=O)C(CC(C)C)CN1CC2` (configuration not stated) [TETRABENAZINE], the concentration at half-maximal activity (AC50) (in assay [10]; in assay [11]; at Estrogen receptor [1]; on Estrogen receptor [2]; in [3]; in assay [9]) was greater than 30 µM in each case. The AC50 in assay [6] and in [7] was greater than 30 µM throughout.

With `C[C@@H](O)[C@H]1C(=O)N2C(C(=O)O)=C(SCCN=CN)C[C@H]12` [IMIPENEM ANHYDROUS], the AC50 in [10] was greater than 300 µM; in assay [11], greater than 300 µM; on Estrogen receptor [1] it was greater than 300 µM; on Estrogen receptor [2], greater than 300 µM; in assay [3], greater than 2000 µM; in assay [9], greater than 2400 µM. Moreover, the AC50 (on Glucocorticoid receptor [4]; at Glucocorticoid receptor [5]; in assay [6]; in assay [7]) was greater than 300 µM in each case.

Consider `c1cnc2cc3c(cc2n1)[C@@H]1CNC[C@H]3C1` [VARENICLINE], for which the AC50 is greater than 30 µM in [10]; greater than 30 µM in assay [11]; greater than 30 µM at Estrogen receptor [1]; 4.6 µM at Estrogen receptor [2]; greater than 30 µM in assay [3]; greater than 30 µM in [9]. The AC50 in [6] and in assay [7] was greater than 30 µM each time.

As to `Cc1c(C)c2c(c(C)c1O)CCC(C)(COc1ccc(CC3SC(=O)NC3=O)cc1)O2` (configuration not stated) [TROGLITAZONE], the AC50 was greater than 30 µM at Estrogen receptor [1]; greater than 30 µM at Estrogen receptor [2]; greater than 30 µM at Estrogen receptor [12]; greater than 30 µM in assay [3]; 6.8 µM in assay [9]; greater than 3 µM in assay [13]. This compound yielded an AC50 at Mu-type opioid receptor greater than 30 µM.

Consider `CN(C)CCC=C1c2ccccc2CCc2ccccc21` [AMITRIPTYLINE], for which the figures for the AC50 (at Estrogen receptor [12]; in assay [13]; in [8]) were greater than 30 µM, greater than 30 µM and 1.81 µM, respectively.

For `CC(=O)Oc1ccccc1C(=O)O` [ASPIRIN], the half-maximal activity concentration (AC50) was 15.1 µM on Estrogen receptor [12], greater than 30 µM in assay [13] and greater than 30 µM in assay [8].

With `CN(C)CCCC1(c2ccc(F)cc2)OCc2cc(C#N)ccc21` (configuration not stated) [CITALOPRAM], the AC50 (at Estrogen receptor [12]; in assay [14]; in assay [8]) was greater than 30 µM in each case.

As for `N#Cc1ccnc(N2C(=O)CC[C@H]2C(=O)N(c2cncc(F)c2)[C@H](C(=O)NC2CC(F)(F)C2)c2ccccc2Cl)c1` [IVOSIDENIB], the figures for the AC50 in [13] and in assay [8] were greater than 30 µM and greater than 50 µM, respectively.

On to `CCOC(=O)[C@H](CCc1ccccc1)N[C@@H](C)C(=O)N1Cc2ccccc2C[C@H]1C(=O)O`, for which the half-maximal activity concentration (AC50) (at Estrogen receptor [12]; in assay [14]; in [8]) was greater than 30 µM in each case.

As to `CC(=O)SCC(Cc1ccccc1)C(=O)NCC(=O)OCc1ccccc1` (configuration not stated) [RACECADOTRIL], the half-maximal activity concentration (AC50) is greater than 30 µM at Estrogen receptor [12], greater than 30 µM at Glucocorticoid receptor [4], 6.3 µM on Glucocorticoid receptor [5] and greater than 30 µM on Mu-type opioid receptor.

For the compound `Nc1c2c(nc3ccccc13)CCCC2O` (configuration not stated) [VELNACRINE], the concentration at half-maximal activity (AC50) was greater than 30 µM in assay [10]; greater than 30 µM in assay [11]; greater than 30 µM at Estrogen receptor [1]; greater than 10 µM on Estrogen receptor [2]; greater than 30 µM in assay [3]; greater than 30 µM in assay [9]. The AC50 is greater than 30 µM on Glucocorticoid receptor [4], 14 µM at Glucocorticoid receptor [5], greater than 30 µM in assay [6] and greater than 30 µM in assay [7].

For the compound `CC(C)/N=c1\cc2n(-c3ccc(Cl)cc3)c3ccccc3nc-2cc1Nc1ccc(Cl)cc1` [CLOFAZIMINE], the AC50 is 0.13 µM at Estrogen receptor [12], greater than 30 µM on Glucocorticoid receptor [4], greater than 30 µM on Glucocorticoid receptor [5] and greater than 30 µM at Mu-type opioid receptor.

Regarding `O=C(O)[C@H]1/C(=C/CO)O[C@@H]2CC(=O)N21` [CLAVULANIC ACID], the AC50 (on Estrogen receptor [1]; at Estrogen receptor [2]; in assay [3]; in assay [9]; at Glucocorticoid receptor [4]; at Glucocorticoid receptor [5]) was greater than 30 µM in each case. The AC50 in [6] and in assay [7] was greater than 30 µM in each case.

For `NCC1(CC(=O)O)CCCCC1` [GABAPENTIN], the half-maximal activity concentration (AC50) (in [10]; in assay [11]; in assay [3]; in assay [9]; in [13]; on Glucocorticoid receptor [4]) was greater than 30 µM throughout. Moreover, the AC50 (at Glucocorticoid receptor [5]; in assay [6]; in assay [7]; in assay [8]) was greater than 30 µM each time.

As for `CCC[C@@]1(CCc2ccccc2)CC(O)=C([C@H](CC)c2cccc(NS(=O)(=O)c3ccc(C(F)(F)F)cn3)c2)C(=O)O1`, the AC50 in assay [10] was greater than 30 µM; in assay [11], greater than 30 µM; in [3], greater than 30 µM; in assay [9] it was 22 µM; on Glucocorticoid receptor [4], greater than 30 µM; on Glucocorticoid receptor [5] it was greater than 30 µM. For the same compound, the AC50 in assay [6] was greater than 30 µM; in [7], 6.9 µM; in assay [8], greater than 50 µM.

As for `C[C@H](CCC(=O)O)[C@H]1CC[C@H]2[C@@H]3[C@H](O)C[C@@H]4C[C@H](O)CC[C@]4(C)[C@H]3CC[C@]12C` [CHENODIOL], the AC50 (in assay [10]; in assay [11]; on Estrogen receptor [1]; on Estrogen receptor [2]; in assay [3]; in assay [9]) was greater than 30 µM in each case. Moreover, the AC50 in assay [6] is greater than 30 µM; in [7], greater than 30 µM; in [8], greater than 50 µM.

For the origin of these results see ChEMBL document CHEMBL5291721, “A preclinical secondary pharmacology resource illuminates target-adverse drug reaction associations of marketed drugs” (Nat Commun, 2023).
